Legend:
[1] = biological target: MASP-2 (CCP1-CCP2-SP) (Homo sapiens (Human), UniProt O00187); assay: Enzymatic Assay for MASP-2 (fluorogenic substrate); type: biochemical
[2] = biological target: human α-thrombin (Homo sapiens (Human), UniProt P00734); assay: Enzymatic Assay for Thrombin (Boc-VPR-AMC); type: biochemical
[3] = biological target: MASP-2 CCP2-SP (Homo sapiens (Human), UniProt O00187); assay: MASP-2 co-crystallization, X-ray crystallography and structure analysis (H-bonds, van der Waals contacts); design: van der Waals contact distance, MASP-2 HIS 483 atom CD2 / van der Waals contact distance, MASP-2 HIS 483 atom NE2 / van der Waals contact distance, SER 654 C to compound atom / van der Waals contact distance, SER 654 O to compound atom / van der Waals contact distance, TRP 655 C to compound atom / van der Waals contact distance, MASP-2 GLY 528 atom CA / van der Waals contact distance TRP 655 atom CZ3 / van der Waals contact distance TRP 655 atom N / van der Waals contact distance TRP 655 atom CE3 / van der Waals contact distance GLY 656 atom C / van der Waals contact distance GLY 656 atom CA / van der Waals contact distance GLY 656 atom O / van der Waals contact distance, MASP-2 TYR 607 atom CD1 / van der Waals contact distance, MASP-2 PRO 606 atom O / d(C3,CA1) / d(CA1,N1)2 / d(H4,O1) / d(H4,O2) / d(O1,O2) / d(CA1,O2) / d(CA6,O1) / d(CA6,O2) / d(CA1,C5) / d(O2,H3) / d(N2,C2) / d(CA5,N2) / d(N2,C4) / d(N2,C6) / d(N2,CA3) / d(N2,O3) / d(O4,H2): unit not given beside the values; details: for H-bond distance to MASP-2 GLY 656 atom O: GLY 656 O; for H-bond distance to MASP-2 SER 654 atom O: SER 654 O; for H-bond distance to MASP-2 SER 657 atom O: SER 657 O; for van der Waals contact distance, MASP-2 HIS 483 atom CD2: Table A2-1; for van der Waals contact distance, MASP-2 PHE 529 atom CD1: Table A2-3; for van der Waals contact distance, VAL 653 CG1 to compound atom: Table A2-11; for van der Waals contact distance GLY 656 atom C: MASP-2 GLY 656 C; for van der Waals contact distance TRP 655 atom N: MASP-2 TRP 655 N; for van der Waals contact distance SER 657 atom C: MASP-2 SER 657 C, columns c12-c13 (inferred); for Ligand-pharmacophore element distance, pharmacophore element C2 / Ligand-pharmacophore element distance, pharmacophore element C3 / Ligand-pharmacophore element distance, pharmacophore element C4 / Ligand-pharmacophore element distance, pharmacophore element C5 / Ligand-pharmacophore element distance, pharmacophore element C6 / Ligand-pharmacophore element distance, pharmacophore element C7 / Ligand-pharmacophore element distance, pharmacophore element CA1 / Ligand-pharmacophore element distance, pharmacophore element CA2 / Ligand-pharmacophore element distance, pharmacophore element CA3 / Ligand-pharmacophore element distance, pharmacophore element CA4 / Ligand-pharmacophore element distance, pharmacophore element CA5 / Ligand-pharmacophore element distance, pharmacophore element CA6: Table A4-1; for d(CA1,N1) / d(CA1,O1) / d(CA1,O2) / d(H4,O1) / d(H4,O2) / d(O1,O2): Table A5-1 pharmacophore: distance between elements, S2/S1 region; for a(CA1, O1, O2) / a(O1, O2, H4) / A(N1, CA1, O1) a): Table A6-1 pharmacophore angle; for A(N1, CA1, O1) a): all compounds with protonatable center N1 except Methyl-amino-pyridine; for Pharmacophore torsion angle a(H4, O1, O2, H3) / Pharmacophore torsion angle a(H4, O1, O2, N2) / Pharmacophore torsion angle a(N1, CA1, O2, H4) / Pharmacophore torsion angle a(O1, H4, O2, CA1): Table A7-1; for Pharmacophore protein distance to MET_658 (first MET_658 column) / Pharmacophore protein distance to MET_658 (second MET_658 column) / Pharmacophore protein distance to GLY_528 / Pharmacophore protein distance to PHE_529 / Pharmacophore protein distance to PRO_608 / Pharmacophore protein distance to SER_611 / Pharmacophore protein distance to TRP_655: Table A8-6, nearest protein atom in cell to the left; for Pharmacophore protein distance to MET_658 (first MET_658 column): 6th residue column; for Pharmacophore protein distance to MET_658 (second MET_658 column): 9th residue column; for Pharmacophore protein distance to TRP_655: pharmacophore elements C6, CA3, O3, H1;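 for Ligand-pharmacophore element distance, pharmacophore element C2: distance from averaged pharmacophore element to bound ligand; missing value means element absent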;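 for Ligand-pharmacophore element distance, pharmacophore element C3: distance from averaged pharmacophore element to bound ligand; missing value means element absent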;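 for Ligand-pharmacophore element distance, pharmacophore element C4: distance from averaged pharmacophore element to bound ligand; missing value means element absent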;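 for Ligand-pharmacophore element distance, pharmacophore element C5: distance from averaged pharmacophore element to bound ligand; missing value means element absent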
Procedure, shortened: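 Soaked crystals of recombinant CCP2-SP (E. coli) yield the structures, phased by molecular replacement on 1Q3X pieces. Hydrophobic or nonbonded contacts can also cover atom pairs that are potential hydrogen bonds.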

[4] = Table A2-9, ARG 630, AA atoms CG, CZ
[5] = Table A2-9 second part, ARG 630, AA atoms N, NE, NH1
[6] = Table A5-2 pharmacophore distance, S3/S4 region
[7] = between pharmacophore elements of the bound compound
[8] = Table A7-2, between pharmacophore elements of the bound compound

MASP-2 CCP2-SP, sequence (O00187 445-686): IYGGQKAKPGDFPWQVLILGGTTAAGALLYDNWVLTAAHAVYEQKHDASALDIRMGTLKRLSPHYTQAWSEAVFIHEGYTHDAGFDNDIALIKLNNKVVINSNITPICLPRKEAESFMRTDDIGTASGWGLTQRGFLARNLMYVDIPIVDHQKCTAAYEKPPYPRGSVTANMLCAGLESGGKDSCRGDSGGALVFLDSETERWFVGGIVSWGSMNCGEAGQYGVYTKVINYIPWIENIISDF
MASP-2 CCP2-SP, sequence (O00187 364-432 partner): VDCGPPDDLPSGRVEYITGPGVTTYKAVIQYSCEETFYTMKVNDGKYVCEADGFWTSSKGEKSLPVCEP
MASP-2 (CCP1-CCP2-SP), sequence (O00187 445-686): as the sequence (O00187 445-686) above

## C[C@H](NC(=O)[C@H](N)CCc1cccc(Cl)c1)C(=O)NCc1ccc(C(=N)N)cc1 [compound 1081]
[1]
  Ki: < 0.5 µM
[2]
  Ki: < 0.5 µM
[3]; Table A1 (H-Bonds)
  H-bond distance to MASP-2 GLY 656 atom O: 2.92
  H-bond distance to MASP-2 SER 654 atom O: 2.81
  H-bond distance to MASP-2 SER 657 atom O: 2.69
[3]; Table A1 (H-Bonds), SER 628 O
  H-bond distance to MASP-2 SER 628 atom O: 2.86
[3]
  van der Waals contact distance, MASP-2 HIS 483 atom CD2: 3.74
  van der Waals contact distance, MASP-2 PHE 529 atom CD1: 3.38
  van der Waals contact distance, VAL 653 CG1 to compound atom: 3.84
  Ligand-pharmacophore element distance, pharmacophore element C2: 0
  Ligand-pharmacophore element distance, pharmacophore element C3: 0
  Ligand-pharmacophore element distance, pharmacophore element C4: 1.99
  Ligand-pharmacophore element distance, pharmacophore element C5: 0
  Ligand-pharmacophore element distance, pharmacophore element C6: 0
  Ligand-pharmacophore element distance, pharmacophore element C7: 0
  Ligand-pharmacophore element distance, pharmacophore element CA1: 0.48
  Ligand-pharmacophore element distance, pharmacophore element CA2: 0.76
  Ligand-pharmacophore element distance, pharmacophore element CA3: 0
  Ligand-pharmacophore element distance, pharmacophore element CA4: 0
  Ligand-pharmacophore element distance, pharmacophore element CA5: 0
  Ligand-pharmacophore element distance, pharmacophore element CA6: 0
  d(CA1,N1): 3.62
  d(CA1,O1): 4.57
  d(CA1,O2): 4.27
  d(H4,O1): 5.10
  d(H4,O2): 4.46
  d(O1,O2): 3.45
  a(CA1, O1, O2): 108.25
  a(O1, O2, H4): 138.44
  A(N1, CA1, O1) a): 163.55
  Pharmacophore protein distance to MET_658 (first MET_658 column): 3.11
  Pharmacophore protein distance to MET_658 (second MET_658 column): 3.70
  Pharmacophore protein distance to GLY_528: 3.22
  Pharmacophore protein distance to PHE_529: 3.23
  Pharmacophore protein distance to PRO_608: 4.72
  Pharmacophore protein distance to SER_611: 2.66
  Pharmacophore protein distance to TRP_655: 3.69
[3]; Table A2-7 continued: CYS 629 (CA)
  van der Waals contact distance, MASP-2 amino acid atom to compound atom: 3.8
[3]; [4]
  van der Waals contact distance, MASP-2 amino acid atom to compound atom: 3.76
[3]; [5]
  van der Waals contact distance, MASP-2 amino acid atom to compound atom: 3.81
[3]; Table A2-13
  van der Waals contact distance GLY 656 atom C: 3.27
  van der Waals contact distance TRP 655 atom N: 3.83
[3]; Table A2-13, MASP-2 TRP 655 O
  van der Waals contact distance TRP 655 atom O: 3.8
[3]; Table A2-14, MASP-2 GLY 656 O
  van der Waals contact distance GLY 656 atom O: 3.81
[3]; Table A2-14
  van der Waals contact distance SER 657 atom C: 3.62
[3]; [6]
  d(N2,C4): 7.56
  d(N2,C4)4: 7.56
  d(N2,CA2): 6.05
  d(O2,H3): 5.78
  d(O2,N2): 2.76
[3]; Table A6-2 pharmacophore angle
  a(O1, O2, H3): 153.00
  a(O1, O2, N2): 139.53
  a(O2, N2, C4): 161.57
  a(O2, N2, C4) 2: 119.80
  a(O2, N2, CA2): 153.98
[3]; [7]
  Pharmacophore torsion angle a(H4, O1, O2, H3): 36.36
  Pharmacophore torsion angle a(H4, O1, O2, N2): 121.47
  Pharmacophore torsion angle a(N1, CA1, O2, H4): −125.05
  Pharmacophore torsion angle a(O1, H4, O2, CA1): −62.03
[3]; [8]
  Pharmacophore torsion angle a(O1, O2, N2, CA2): 142.86

## C[C@H](NC(=O)[C@H](N)CCc1cc(Cl)cc(Cl)c1)C(=O)NCc1ccc(C(=N)N)cc1 [compound 1118]
[1]
  Ki: < 0.5 µM
[2]
  Ki: < 0.5 µM
[3]; Table A1 (H-Bonds), GLY 656 N
  H-bond distance to MASP-2 GLY 656 atom N: 3.07
[3]; Table A1 (H-Bonds)
  H-bond distance to MASP-2 GLY 656 atom O: 2.77
  H-bond distance to MASP-2 SER 654 atom O: 2.88
  H-bond distance to MASP-2 SER 657 atom O: 2.93
[3]; Table A1 (H-Bonds), SER 628 OG
  H-bond distance to MASP-2 SER 628 atom OG: 3.18
[3]
  van der Waals contact distance, MASP-2 HIS 483 atom CD2: 3.64
  van der Waals contact distance, MASP-2 PHE 529 atom CD1: 3.52
  van der Waals contact distance, VAL 653 CG1 to compound atom: 3.86
  Ligand-pharmacophore element distance, pharmacophore element C2: 0
  Ligand-pharmacophore element distance, pharmacophore element C3: 0
  Ligand-pharmacophore element distance, pharmacophore element C4: 2.54
  Ligand-pharmacophore element distance, pharmacophore element C5: 0
  Ligand-pharmacophore element distance, pharmacophore element C6: 1.17
  Ligand-pharmacophore element distance, pharmacophore element C7: 0
  Ligand-pharmacophore element distance, pharmacophore element CA1: 0.43
  Ligand-pharmacophore element distance, pharmacophore element CA2: 0.69
  Ligand-pharmacophore element distance, pharmacophore element CA3: 0
  Ligand-pharmacophore element distance, pharmacophore element CA4: 0
  Ligand-pharmacophore element distance, pharmacophore element CA5: 0
  Ligand-pharmacophore element distance, pharmacophore element CA6: 0
  d(CA1,N1): 3.55
  d(CA1,O1): 4.35
  d(CA1,O2): 4.33
  d(H4,O1): 4.85
  d(H4,O2): 4.52
  d(O1,O2): 3.25
  a(CA1, O1, O2): 111.55
  a(O1, O2, H4): 139.63
  A(N1, CA1, O1) a): 162.73
  Pharmacophore protein distance to MET_658 (first MET_658 column): 1.45
  Pharmacophore protein distance to MET_658 (second MET_658 column): 3.28
  Pharmacophore protein distance to GLY_528: 3.82
  Pharmacophore protein distance to PHE_529: 3.01
  Pharmacophore protein distance to PRO_608: 4.83
  Pharmacophore protein distance to SER_611: 3.12
  Pharmacophore protein distance to TRP_655: 3.71
[3]; Table A2-4
  van der Waals contact distance, MASP-2 TYR 607 atom CA: 3.79
[3]; [4]
  van der Waals contact distance, MASP-2 amino acid atom to compound atom: 3.85
[3]; [5]
  van der Waals contact distance, MASP-2 amino acid atom to compound atom: 3.67
[3]; Table A2-13
  van der Waals contact distance GLY 656 atom C: 3.63
  van der Waals contact distance TRP 655 atom N: 3.76
[3]; Table A2-13, MASP-2 TRP 655 CZ3
  van der Waals contact distance TRP 655 atom CZ3: 3.69
[3]; Table A2-14
  van der Waals contact distance SER 657 atom C: 3.8
[3]; [6]
  d(N2,C4): 7.40
  d(N2,C4)4: 7.40
  d(N2,C6): 8.27
  d(N2,CA2): 5.84
  d(O2,H3): 5.85
  d(O2,N2): 2.67
[3]; Table A6-2 pharmacophore angle
  a(O1, O2, H3): 152.79
  a(O1, O2, N2): 137.47
  a(O2, N2, C4): 162.84
  a(O2, N2, C4) 2: 125.21
  a(O2, N2, C6): 88.59
  a(O2, N2, CA2): 154.60
[3]; [7]
  Pharmacophore torsion angle a(H4, O1, O2, H3): 38.74
  Pharmacophore torsion angle a(H4, O1, O2, N2): 128.20
  Pharmacophore torsion angle a(N1, CA1, O2, H4): −132.91
  Pharmacophore torsion angle a(O1, H4, O2, CA1): −65.17
[3]; [8]
  Pharmacophore torsion angle a(O1, O2, N2, C6): 150.07
  Pharmacophore torsion angle a(O1, O2, N2, CA2): 145.00

From patent US12195427B2, “MASP-2 inhibitors and methods of use” (priority 2018, dated 2025)
